Assay [1] deals with HCC-78 (Lung Adenocarcinoma). As to the kind of experiment: combination Emax (second highest fraction inhibited in the dose matrix, 72 h); higher = more inhibition; extreme values may be limits of the assay. An outline of the steps: (§1)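 Cell lines grown in DMEM/F12 or RPMI with 10% FBS were plated in 1536-well plates and held 24 hours at 37°C, 5% CO2 before 72 hours of exposure to two-drug dose matrices, with DMSO typically at 0.2%. CellTiter-Glo 2.0 luminescence gave viability, which was converted to inhibition. Vehicle wells were set to 0 and blank wells to 1. Combination Emax is the second-highest inhibition in the matrix, and Bliss excess is the observed combination effect minus the expected EA + EB − EA·EB, where EA and EB are the single-agent effects.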

For assay [2], the system named is DoTc2-4510 (Cervical Carcinoma). The description is as above. An outline of the steps:
as §1

Assay [3] concerns NB10 (Neuroblastoma). The description is as above. The method in brief: as §1
Assay [4] has as its system LS-180 (Colorectal Carcinoma). Described as above. An outline of the steps:
as §1

Assay [5] has as its system NCI-H82 (Small Cell Lung Carcinoma). Put plainly: Bliss excess, mean over the matrix (fraction); higher = more synergy. The method in brief: as §1
The subject of assay [6] is HCC-78 (Lung Adenocarcinoma). Described as above. The method in brief: as §1
The subject of assay [7] is DoTc2-4510 (Cervical Carcinoma). The assay is described as above. An outline of the steps: as §1
Assay [8] has as its system NB10 (Neuroblastoma). The assay is described as above. The method in brief:
as §1

The next assay relates to KELLY (Neuroblastoma). The assay is described as above. An outline of the steps: as §1
For assay [9], the system named is TE-9 (Esophageal Squamous Cell Carcinoma). The description is as above. An outline of the steps:
as §1

In assay [10] the test system is Hs-578-T (Breast Carcinoma). The assay is described as above. An outline of the steps:
as §1

The subject of another assay is T98G (Glioblastoma). The description is as above. An outline of the steps: as §1
Assay [11] relates to ME-1 (Acute Myeloid Leukemia). The description is as above. An outline of the steps: as §1
In assay [12] the test system is RO82-W-1 (Thyroid Gland Carcinoma). Described as above. An outline of the steps: as §1
Assay [13] deals with LS-180 (Colorectal Carcinoma). The description is as above. An outline of the steps:
as §1

In assay [14] the test system is CaR-1 (Colorectal Carcinoma). Described as above. An outline of the steps:
as §1

A further assay relates to HOS (Osteosarcoma). Described as above. An outline of the steps:
as §1

In assay [15] the test system is CAL-148 (Breast Carcinoma). The assay is described as above. The method in brief:
as §1

The test system of assay [16] is TE-15 (Esophageal Squamous Cell Carcinoma). The description is as above. An outline of the steps:
as §1

For assay [17], the system named is CCRF-CEM (T-Lymphoblastic Leukemia). The assay is described as above. An outline of the steps: as §1

Molecules are shown by their SMILES.

Take `C[C@@H](Nc1cc(F)cc(F)c1)c1cc(C(=O)N(C)C)cc2c(=O)cc(N3CCOCC3)oc12` [AZD8186] + CC(=O)c1c(C)c2cnc(Nc3ccc(N4CCNCC4)cn3)nc2n(C2CCCC2)c1=O [Palbociclib] (first compound max 10 µM, 7x7, partner max 10 µM): the “combination Emax” value in assay [1] amounted to 0.365; in [2] it was 0.297; in the assay on NB10 (Neuroblastoma) [3], 0.403; in assay [4], 0.624. The Bliss excess in [5] is -0.0338; in [6], 0.0329; in [7], -0.0639; in the assay on NB10 (Neuroblastoma) [8], 0.0425; with KELLY (Neuroblastoma), 0.0897; in assay [9] it was -0.0589. Moreover, the Bliss excess is -0.0091 in assay [10]; 0.0744 with T98G (Glioblastoma); 0.0065 in assay [11]; 0.033 in [12]; 0.0004 in [13]; -0.0054 in assay [14]. Also, the Bliss excess in the assay with HOS (Osteosarcoma) was -0.0227; in assay [15], 0.033; in assay [16], -0.0044; in assay [17], -0.0167.

For the molecule `C[C@@H](Oc1cc(-c2cnn(C3CCNCC3)c2)cnc1N)c1c(Cl)ccc(F)c1Cl` [Crizotinib] + CC1=C(C(=CC=C1)Cl)NC(=O)C2=CN=C(S2)NC3=CC(=NC(=N3)C)N4CCN(CC4)CCO [Dasatinib] (first compound max 10 µM, 7x7, partner max 2 µM), the “combination Emax” value turned out to be 0.754 in assay [1], 0.897 in assay [2], 0.792 with NB10 (Neuroblastoma) [3] and 0.585 in assay [4]. Further, the Bliss excess in [5] was -0.0642; in assay [6] it was 0.0887; in assay [7], 0.0349; in the assay on NB10 (Neuroblastoma) [8] it was -0.0423; with KELLY (Neuroblastoma) it was -0.019; in assay [9] it was 0.0657. Also, the Bliss excess in assay [10] is 0.0455; in the assay with T98G (Glioblastoma), 0.0943; in [11] it was -0.0061; in assay [12], 0.0517; in assay [13], -0.0156; in [14], 0.0573. For the same molecule, the Bliss excess in the assay on HOS (Osteosarcoma) was -0.0153; in assay [15] it was -0.0351; in [16], -0.0403; in assay [17], -0.0055.

Consider `C[C@@H](Oc1cc(-c2cnn(C3CCNCC3)c2)cnc1N)c1c(Cl)ccc(F)c1Cl` [Crizotinib] + Cn1cnc2c(F)c(Nc3ccc(Br)cc3Cl)c(C(=O)NOCCO)cc21 [Selumetinib] (first compound max 10 µM, 7x7, partner max 10 µM), for which the “combination Emax” value stood at 0.637 in [1], 0.292 in assay [2], 0.872 in the assay on NB10 (Neuroblastoma) [3] and 0.717 in [4]. Further, the Bliss excess was -0.0702 in assay [5]; 0.0444 in [6]; -0.0514 in [7]; -0.0221 with NB10 (Neuroblastoma) [8]; 0.0644 in the assay with KELLY (Neuroblastoma); -0.0199 in assay [9]. The Bliss excess in [10] is -0.0131; in the assay with T98G (Glioblastoma) it was -0.0578; in assay [11], 0.0624; in assay [12], -0.0227; in assay [13] it was -0.0236; in assay [14], 0.0092. Besides, the Bliss excess with HOS (Osteosarcoma) is -0.0566; in [15] it was -0.0173; in assay [16], -0.021; in assay [17] it was -0.0682.

For the molecule `CS(=O)(=O)CCNCc1ccc(-c2ccc3ncnc(Nc4ccc(OCc5cccc(F)c5)c(Cl)c4)c3c2)o1` [Lapatinib] + Cn1cnc2c(F)c(Nc3ccc(Br)cc3Cl)c(C(=O)NOCCO)cc21 [Selumetinib] (first compound max 10 µM, 7x7, partner max 10 µM), the “combination Emax” value in assay [1] turned out to be 0.228; in [2] it was 0.597; in the assay with NB10 (Neuroblastoma) [3], 0.481; in assay [4] it was 0.758. Besides, the Bliss excess in [5] was -0.0082; in [6], -0.0196; in [7], -0.0459; in the assay on NB10 (Neuroblastoma) [8], 0.0376; in the assay on KELLY (Neuroblastoma), -0.0152; in assay [9], -0.0341. The Bliss excess is -0.0311 in [10]; 0.0075 in the assay on T98G (Glioblastoma); 0.0694 in assay [11]; -0.0093 in assay [12]; 0.0947 in assay [13]; 0.0337 in [14]. The Bliss excess in the assay on HOS (Osteosarcoma) is -0.0848; in [15], 0.0085; in [16], -0.0388; in [17], -0.0051.

In the case of `O=C(c1cc(Cc2n[nH]c(=O)c3ccccc23)ccc1F)N1CCN(C(=O)C2CC2)CC1` [Olaparib] + CC1(C)CCC(CN2CCN(c3ccc(C(=O)NS(=O)(=O)c4ccc(NCC5CCOCC5)c([N+](=O)[O-])c4)c(Oc4cnc5[nH]ccc5c4)c3)CC2)=C(c2ccc(Cl)cc2)C1 [Venetoclax] (first compound max 10 µM, 7x7, partner max 1 µM), the “combination Emax” value came to 0.0996 in assay [1], 0.259 in [2], 0.348 with NB10 (Neuroblastoma) [3] and 0.203 in assay [4]. Moreover, the Bliss excess in [5] was -0.0197; in assay [6], -0.0181; in assay [7], -0.0462; in the assay with NB10 (Neuroblastoma) [8], -0.0041; in the assay with KELLY (Neuroblastoma), 0.0744; in assay [9], -0.045. The Bliss excess in assay [10] is -0.115; with T98G (Glioblastoma), -0.0269; in [11] it was 0.0436; in [12], -0.0277; in assay [13], -0.0431; in assay [14] it was -0.0509. The Bliss excess with HOS (Osteosarcoma) was -0.0626; in assay [15], -0.0581; in assay [16], -0.0098; in assay [17], -0.0036.

Regarding `O=C(c1cc(Cc2n[nH]c(=O)c3ccccc23)ccc1F)N1CCN(C(=O)C2CC2)CC1` [Olaparib] + CN(CC[C@H](CSC1=CC=CC=C1)NC2=C(C=C(C=C2)S(=O)(=O)NC(=O)C3=CC=C(C=C3)N4CCC(CC4)[C@H](C5=CC=CC=C5C6=CC=C(C=C6)Cl)O)S(=O)(=O)C(F)(F)F)CCO [AZD4320] (first compound max 10 µM, 7x7, partner max 1 µM), the “combination Emax” value was determined as 0.241 in assay [1], 0.668 in assay [2], 0.389 with NB10 (Neuroblastoma) [3] and 0.227 in assay [4]. In addition, the Bliss excess was -0.0532 in assay [5]; -0.016 in assay [6]; 0.03 in [7]; -0.0471 with NB10 (Neuroblastoma) [8]; 0.134 in the assay with KELLY (Neuroblastoma); -0.003 in assay [9]. The Bliss excess in assay [10] is -0.0625; in the assay on T98G (Glioblastoma) it was 0.0008; in assay [11] it was -0.0216; in assay [12], 0.0031; in assay [13], -0.0552; in assay [14], -0.054. In addition, the Bliss excess is 0.0192 with HOS (Osteosarcoma), 0.0335 in assay [15], -0.0494 in assay [16] and 0.0247 in assay [17].

Source of the values: the supplement of paper PMC11061612.
